Measured values taken from PubChem BioAssay (NCI).
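Each compound was tested at five concentrations against cells in 96-well plates for 48 hours. At the TGI there is no net growth.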

How the values were obtained:
Assay in all cases: inhibition of tumour cell growth, NCI panel, 48 h
CCRF-CEM leukemia = system: CCRF-CEM leukemia
HL-60(TB) leukemia = system: HL-60(TB) leukemia
A549 NSCLC = system: A549 NSCLC
SR leukemia = system: SR leukemia
OVCAR-4 ovarian = system: OVCAR-4 ovarian
MOLT-4 leukemia = system: MOLT-4 leukemia
IGROV1 ovarian = system: IGROV1 ovarian
SK-MEL-28 melanoma = system: SK-MEL-28 melanoma
UO-31 renal = system: UO-31 renal
NCI-H23 lung = system: NCI-H23 lung
DLD-1 colon = system: DLD-1 colon
786-0 renal = system: 786-0 renal
DMS 273 small cell lung = system: DMS 273 small cell lung
SN12C renal = system: SN12C renal
SK-MEL-5 melanoma = system: SK-MEL-5 melanoma
NCI-H460 lung = system: NCI-H460 lung
SF-539 CNS = system: SF-539 CNS
OVCAR-5 ovarian = system: OVCAR-5 ovarian
SF-268 CNS = system: SF-268 CNS
XF 498 CNS = system: XF 498 CNS
A498 renal = system: A498 renal
RPMI-8226 leukemia = system: RPMI-8226 leukemia
SNB-78 CNS = system: SNB-78 CNS
SNB-75 CNS = system: SNB-75 CNS
KM12 colon = system: KM12 colon
ACHN renal = system: ACHN renal
SF-295 CNS = system: SF-295 CNS
LXFL 529 NSCLC = system: LXFL 529 NSCLC
HCT-116 colon = system: HCT-116 colon
SK-MEL-2 melanoma = system: SK-MEL-2 melanoma
NCI-H226 lung = system: NCI-H226 lung
MALME-3M melanoma = system: MALME-3M melanoma
U251 CNS = system: U251 CNS
OVCAR-3 ovarian = system: OVCAR-3 ovarian
HOP-92 NSCLC = system: HOP-92 NSCLC
OVCAR-8 ovarian = system: OVCAR-8 ovarian
UACC-62 melanoma = system: UACC-62 melanoma
COLO 205 colon = system: COLO 205 colon
RXF-631 renal = system: RXF-631 renal
HCT-15 colon = system: HCT-15 colon
TK-10 renal = system: TK-10 renal
M14 melanoma = system: M14 melanoma
HOP-18 NSCLC = system: HOP-18 NSCLC
NCI-H522 lung = system: NCI-H522 lung
EKVX NSCLC = system: EKVX NSCLC
LOX IMVI melanoma = system: LOX IMVI melanoma
SK-OV-3 ovarian = system: SK-OV-3 ovarian
DMS 114 small cell lung = system: DMS 114 small cell lung
SW-620 colon = system: SW-620 colon
HT29 colon = system: HT29 colon
M19-MEL melanoma = system: M19-MEL melanoma
K-562 leukemia = system: K-562 leukemia
UACC-257 melanoma = system: UACC-257 melanoma
RXF 393 renal = system: RXF 393 renal
CAKI-1 renal = system: CAKI-1 renal
HOP-62 NSCLC = system: HOP-62 NSCLC
SNB-19 CNS = system: SNB-19 CNS

Measured: TGI

O=C(O)CC(O)(c1ccccc1C(=O)O)c1cccc2ccccc12 (configuration not stated)
> 100 µM: all assays above
